From PMC3926938 (Nature structural & molecular biology, 2012)
Values belong to the molecule of their own block, whether it stands above or below them. Square brackets hold non-standard residues; d marks the D form. Ends that are not written are not given here. Lys(Me3) = C[N+](C)(C)CCCC[C@H](N)C(=O)O

What was measured:
[1] = molecular target: human PHF19-Tudor (residues 37–95) (human) (UniProt Q5T6S3); experiment: NMR titration
[2] = molecular target: human PHF19-Tudor (Homo sapiens, UniProt Q5T6S3); experiment: NMR chemical shift titration of Phf19-Tudor with histone H3 peptides; format: binding; conditions: for Kd increased by a factor (alanine mutant peptide vs wild-type peptide): NMR, point mutations in histone H3 amino acids 37–41
[3] = molecular target: human PHF19-Tudor (residues 37–95) (human, UniProt Q5T6S3 37-95); experiment: NMR titration

- Kd [1]: 29 µM
Molecule: 11-mer H3K36me3 peptide (31-ATGGVKme3KPHRY-41)

- binding to Phf19-Tudor (in words) ([2]; NMR titration): unable to bind
Molecule: 31-ATGGV-Kme3-K-37 [H3_31–36]

- Kd increased by a factor (alanine mutant peptide vs wild-type peptide) [2]: did not increase
Molecule: 34GV-Kme3-KPHAY-41 [H3 R10A]

- Kd [1]: 295 µM
Molecule: H3K36me2-containing peptide (NMR)

- Kd increased by a factor (alanine mutant peptide vs wild-type peptide) [2]: 1.6
Molecule: 34-GV-Kme3-KPHRA-41 [H3 Y41A]

- Kd increased by a factor (alanine mutant peptide vs wild-type peptide) [2]: 2.1
Molecule: 34-GV-Kme3-APHRY-41 [H3 K37A]

- Kd [3]: 44 µM
Molecule: GV[Lys(Me3)]KPHRY [short H3K36me3 peptide (34-GV-Kme3-KPHRY-41; called the 7-mer histone H3_(35–41) in the results)]
